The structures appear in SMILES notation.

This assay deals with T1, human GHS-R 1a (Homo sapiens, UniProt Q92847).
T1 construct: expressed in transfected cells; host or cells: LLC PK-1 porcine renal epithelial cells (ECACC No. 86121112), isolated plasma membranes
T1 sequence (Q92847 whole entry): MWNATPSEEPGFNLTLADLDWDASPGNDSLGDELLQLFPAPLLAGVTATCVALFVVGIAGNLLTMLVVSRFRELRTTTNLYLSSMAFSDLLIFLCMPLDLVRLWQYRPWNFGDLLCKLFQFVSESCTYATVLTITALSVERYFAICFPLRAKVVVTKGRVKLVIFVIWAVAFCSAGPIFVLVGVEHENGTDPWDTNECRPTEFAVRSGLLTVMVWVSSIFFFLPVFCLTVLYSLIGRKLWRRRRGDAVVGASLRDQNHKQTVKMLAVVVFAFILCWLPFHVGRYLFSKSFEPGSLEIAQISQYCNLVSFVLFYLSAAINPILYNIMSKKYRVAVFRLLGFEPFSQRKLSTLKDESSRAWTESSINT
The assay is described as follows: GHS-R 1a receptor-ligand binding assay (membrane preparations from transfected LLC PK-1 cells). The conditions noted are these: displacement of 125I-His9-ghrelin (60 pM); membranes of LLC PK-1 cells transfected with human GHS-R 1a; mean of at least two independent experiments in triplicates. The essentials: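 Membranes from LLC PK-1 cells expressing human GHS-R 1a incubated 60 min at 25 °C in 50 mM Tris pH 7.3, 5 mM MgCl2, 2.5 mM EDTA, bacitracin with 60 pM 125I-ghrelin and competitor; nonspecific binding with 10^-6 M ghrelin; filtration read-out.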
The compound `COc1ccc(Cn2c(CCc3c[nH]c4ccccc34)nnc2[C@@H](Cc2c[nH]c3ccccc23)NC(=O)C2CCNCC2)cc1` [compound 45, (R)—N-(1-(5-(2-(1H-indol-3-yl)ethyl)-4-(4-methoxybenzyl)-4H-1,2,4-triazol-3-yl)-2-(1H-indol-3-yl)ethyl)piperidine-4-carboxamide] returned a concentration for half-maximal inhibition (IC50) of 0.3 nM.
In the case of `Cc1ccc(Cn2c(CCc3ccccc3)nnc2[C@@H](Cc2c[nH]c3ccccc23)NC(=O)C(C)(C)N)cc1` [compound 37, (R)—N-(1-(4-(4-methylbenzyl)-5-phenethyl-4H-1,2,4-triazol-3-yl)-2-(1H-indol-3-yl)ethyl)-2-amino-2-methylpropanamide] it was 136 nM.
The result for `CCc1ccc(-n2c(CCc3c[nH]c4ccccc34)nnc2[C@@H](Cc2c[nH]c3ccccc23)NC(=O)Cc2ccccn2)cc1` [compound 148, N—((R)-1-(5-(2-(1H-indol-3-yl)ethyl)-4-(4-ethylphenyl)-4H-1,2,4-triazol-3-yl)-2-(1H-indol-3-yl)ethyl)-2-(pyridin-2-yl)acetamide] reads 96 nM; that for `CCc1ccc(-n2c(CCc3c[nH]c4ccccc34)nnc2[C@@H](Cc2c[nH]c3ccccc23)NC(=O)c2ccccn2)cc1` [compound 147, N—((R)-1-(5-(2-(1H-indol-3-yl)ethyl)-4-(4-ethylphenyl)-4H-1,2,4-triazol-3-yl)-2-(1H-indol-3-yl)ethyl)picolinamide], 49 nM; that for `COc1ccc(-n2c(CCc3ccccc3)nnc2[C@@H](Cc2c[nH]c3ccccc23)NC(=O)C2CCNCC2)c(OC)c1` [compound 163, N—((R)-2-(1H-indol-3-yl)-1-(4-(2,4-dimethoxyphenyl)-5-phenethyl-4H-1,2,4-triazol-3-yl)ethyl)piperidine-4-carboxamide], 63 nM.
With `COc1ccc(Cn2c(CCc3ccccc3)nnc2[C@@H](Cc2c[nH]c3ccccc23)NC(=O)C2CCCCC2)cc1` [compound 53, (R)—N-(1-(4-(4-methoxybenzyl)-5-phenethyl-4H-1,2,4-triazol-3-yl)-2-(1H-indol-3-yl)ethyl)cyclohexanecarboxamide], the 50% inhibitory concentration (IC50) was found to be 18 nM.
The result for `CC(C)(N)C(=O)N[C@H](Cc1c[nH]c2ccccc12)c1nnc(CCc2c[nH]c3ccccc23)n1Cc1ccc(F)cc1` [compound 29, (R)—N-(1-(5-(2-(1H-indol-3-yl)ethyl)-4-(4-fluorobenzyl)-4H-1,2,4-triazol-3-yl)-2-(1H-indol-3-yl)ethyl)-2-amino-2-methylpropanamide] reads 66 nM; that for `COc1ccc(Cn2c(CCc3ccccc3)nnc2[C@@H](Cc2c[nH]c3ccccc23)NCCN)c(OC)c1` [compound 180, N-1-((R)-1-(4-(2,4-dimethoxybenzyl)-5-phenethyl-4H-1,2,4-triazol-3-yl)-2-(1H-indol-3-yl)ethyl)ethane-1,2-diamine], 189 nM; that for `COc1ccc(Cn2c(CCc3ccccc3)nnc2[C@@H](Cc2c[nH]c3ccccc23)NC(=O)[C@@H]2C[C@@H](O)CN2)cc1` [compound 40, (2S,4R)—N—((R)-1-(4-(4-methoxybenzyl)-5-phenethyl-4H-1,2,4-triazol-3-yl)-2-(1H-indol-3-yl)ethyl)-4-hydroxypyrrolidine-2-carboxamide], 249 nM.
In turn, `COc1ccc(Cn2c(CCCc3c[nH]c4ccccc34)nnc2[C@@H](Cc2c[nH]c3ccccc23)NC(=O)C(C)(C)N)cc1` [compound 23, (R)—N-(1-(5-(3-(1H-indol-3-yl)propyl)-4-(4-methoxybenzyl)-4H-1,2,4-triazol-3-yl)-2-(1H-indol-3-yl)ethyl)-2-amino-2-methylpropanamide] showed a half-inhibitory concentration (IC50) of 37 nM. Against the preceding compound, the IC50 is about 6.7-fold lower.
`O=C(N[C@H](Cc1c[nH]c2ccccc12)c1nnc(CCc2c[nH]c3ccccc23)n1-c1ccccc1)C1CCNCC1` [compound 158, N—((R)-1-(5-(2-(1H-indol-3-yl)ethyl)-4-phenyl-4H-1,2,4-triazol-3-yl)-2-(1H-indol-3-yl)ethyl)piperidine-4-carboxamide] gave an IC50 of 70 nM.
`COc1ccc(Cn2c(CCc3ccccc3)nnc2[C@@H](Cc2c[nH]c3ccccc23)NC(=O)c2ccc(N=[N+]=[N-])cc2)c(OC)c1` [compound 188, N—((R)-1-(4-(2,4-dimethoxybenzyl)-5-phenethyl-4H-1,2,4-triazol-3-yl)-2-(1H-indol-3-yl)ethyl)-4-azidobenzamide] had a half-maximal inhibitory concentration (IC50) of 87 nM.
Regarding `COc1ccc(Cn2c(CCc3c[nH]c4ccccc34)nnc2[C@@H](Cc2c[nH]c3ccccc23)NC(=O)Cc2ccccn2)cc1` [compound 91, (R)—N-(1-(5-(2-(1H-indol-3-yl)ethyl)-4-(4-methoxybenzyl)-4H-1,2,4-triazol-3-yl)-2-(1H-indol-3-yl)ethyl)-2-(pyridin-2-yl)acetamide], the IC50 was 11 nM.
As for `COc1ccc(Cn2c(CCc3c[nH]c4ccccc34)nnc2[C@@H](Cc2c[nH]c3ccccc23)NC(=O)c2ccccn2)c(OC)c1` [compound 73, (R)—N-(1-(5-(2-(1H-indol-3-yl)ethyl)-4-(2,4-dimethoxybenzyl)-4H-1,2,4-triazol-3-yl)-2-(1H-indol-3-yl)ethyl)picolinamide], the IC50 came to 1.8 nM.
In turn, `COc1ccc(-n2c(CCc3ccccc3)nnc2[C@@H](Cc2c[nH]c3ccccc23)NC(=O)Cc2ccccn2)c(OC)c1` [compound 160, N—((R)-2-(1H-indol-3-yl)-1-(4-(2,4-dimethoxyphenyl)-5-phenethyl-4H-1,2,4-triazol-3-yl)ethyl)-2-(pyridin-2-yl)acetamide] displayed an IC50 of 121 nM.
In turn, `O=C(N[C@H](Cc1c[nH]c2ccccc12)c1nnc(CCc2c[nH]c3ccccc23)n1Cc1ccccc1)C1CCNCC1` [compound 54, (R)—N-(1-(5-(2-(1H-indol-3-yl)ethyl)-4-benzyl-4H-1,2,4-triazol-3-yl)-2-(1H-indol-3-yl)ethyl)piperidine-4-carboxamide] gave a half-inhibitory concentration (IC50) of 35 nM.
Compound `COc1ccccc1Cn1c(CCc2ccccc2)nnc1[C@@H](Cc1c[nH]c2ccccc12)NC(=O)C(C)(C)N` [compound 26, (R)—N-(1-(4-(2-methoxybenzyl)-5-phenethyl-4H-1,2,4-triazol-3-yl)-2-(1H-indol-3-yl)ethyl)-2-amino-2-methylpropanamide] displayed an IC50 of 56 nM.
The compound `O=C(Cc1ccccn1)N[C@H](Cc1c[nH]c2ccccc12)c1nnc(CCc2c[nH]c3ccccc23)n1Cc1ccccc1` [compound 60, (R)—N-(1-(5-(2-(1H-indol-3-yl)ethyl)-4-benzyl-4H-1,2,4-triazol-3-yl)-2-(1H-indol-3-yl)ethyl)-2-(pyridin-2-yl)acetamide] displayed an IC50 of 61 nM.
Consider `Cc1ccc(Cn2c(CCc3c[nH]c4ccccc34)nnc2[C@@H](Cc2c[nH]c3ccccc23)NC(=O)C(C)(C)N)cc1` [compound 34, (R)—N-(1-(5-(2-(1H-indol-3-yl)ethyl)-4-(4-methylbenzyl)-4H-1,2,4-triazol-3-yl)-2-(1H-indol-3-yl)ethyl)-2-amino-2-methylpropanamide], for which the 50% inhibitory concentration (IC50) came out at 28 nM.
The compound `COc1ccc(Cn2c(CCc3ccccc3)nnc2[C@@H](Cc2c[nH]c3ccccc23)NC(=O)CCN)cc1` [compound 56, (R)—N-(1-(4-(4-methoxybenzyl)-5-phenethyl-4H-1,2,4-triazol-3-yl)-2-(1H-indol-3-yl)ethyl)-3-aminopropanamide] returned an IC50 of 59 nM.

Source of the values: patent US8710089B2, “Triazole derivatives as ghrelin analogue ligands of growth hormone secretagogue receptors” (Zentaris GmbH, priority 2005, dated 2014).
